Reference: patent US9499538B2, “Estrogen receptor modulators and uses thereof” (Seragon Pharmaceuticals, Inc., priority 2012, dated 2016)

Columns and labels:
[1] = biological target: T1, ER-α in MCF-7 cells (Homo sapiens, UniProt P03372); test: Breast Cancer Cell ER-α In Cell Western Assay (SP1); format: cell-based; details: 4 or 24 hr post compound addition; for Emax: MCF7, SP1 antibody, read-out: ER-α In Cell Western Assay (SP1) Max Response; for DC50: SP1 antibody, read-out: ER-α In Cell Western Assay (SP1) IC50
T1 construct: endogenous in cells; host or cells: MCF-7
T1 sequence (P03372 1-595): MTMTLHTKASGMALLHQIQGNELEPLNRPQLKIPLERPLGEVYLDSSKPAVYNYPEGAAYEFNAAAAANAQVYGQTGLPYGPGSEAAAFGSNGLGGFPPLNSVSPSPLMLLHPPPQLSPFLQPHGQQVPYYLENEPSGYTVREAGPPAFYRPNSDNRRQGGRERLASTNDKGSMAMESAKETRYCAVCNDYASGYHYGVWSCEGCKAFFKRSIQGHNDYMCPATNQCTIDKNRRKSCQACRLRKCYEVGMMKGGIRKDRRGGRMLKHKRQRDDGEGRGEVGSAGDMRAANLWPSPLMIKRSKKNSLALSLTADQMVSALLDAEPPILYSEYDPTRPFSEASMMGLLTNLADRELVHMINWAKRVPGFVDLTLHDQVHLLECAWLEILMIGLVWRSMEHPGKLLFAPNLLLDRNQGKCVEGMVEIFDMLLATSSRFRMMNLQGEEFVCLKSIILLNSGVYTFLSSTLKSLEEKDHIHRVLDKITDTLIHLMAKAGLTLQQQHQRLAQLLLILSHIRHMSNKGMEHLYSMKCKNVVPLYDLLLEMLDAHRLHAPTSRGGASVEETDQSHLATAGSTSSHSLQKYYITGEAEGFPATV
Procedure: MCF-7 cells were adjusted to a concentration of 200,000 cells per mL in RPMI containing 10% charcoal-stripped FBS and 20 mM HEPES. 16 microliters of the cell suspension (3200 cells) was added to each well of a poly-D-lysine 384 well plate, and the cells were incubated overnight to allow the cells to adhere. The following day an eleven point, serial semilog dilution of each compound was added to the cells in 16 μL at a final concentration ranging from 0.3-0.000003 μM. At 4 or 24 hr post compound addition, the cells were fixed (10% formalin in PBS) for 20 minutes. Cells were permeablized in PBS 0.1% Triton and blocked with LICOR blocking buffer (50 μl/well, 90′). The wells were then incubated overnight at 4° C. with SP1 rabbit monoclonal Ab (Thermo Scientific) diluted 1:1000 in LICOR blocking buffer/0.1% Tween-20. Wells which were treated with blocking buffer with Tween but no antibody were used as a background control. Wells were washed with 0.1% Tween-20/PBS and then incubated in goat anti-rabbit IRDye™ 800CW (LICOR Inc.; 1:10000) and DRAQ5 DNA dye (1:2000 for 2 mM stock) diluted in LICOR blocking buffer containing 0.1% Tween-20 and 0.01% SDS for 60 minutes. Cells were washed (50 μl/well, 5′ each) in 0.1% Tween-20/PBS. Plates were scanned on a LICOR Odyssey infrared imaging system. Integrated intensities in the 800 nm channel and 700 nm channel were measured to determine levels of ER and DNA respectively. Percent ER levels were determined as follows: (Integrated intensity 800 nm sample/integrated intensity 700 nm sample)/(Integrated intensity 800 nm untreated cells/integrated intensity 700 nm untreated cells)×100=% ER levels. […]

[2] = system: MCF-7 cells; test: Breast Cancer Cell Viability Assays (MCF-7, CellTiter-Glo); format: cell-based; details: 5 days' compound exposure; for IC50: Homo sapiens, MCF7, 120 h
Procedure: MCF-7 cells were adjusted to a concentration of 20,000 cells per mL in RPMI containing 10% FBS and 20 mM HEPES. 16 microliters of the cell suspension (320 cells) was added to each well of a 384 well plate, and the cells were incubated overnight to allow the cells to adhere. The following day an eleven point, serial semilog dilution of each compound was added to the cells in 16 μL at a final concentration ranging from 0.3-0.000003 μM. After 5 days' compound exposure, 16 μL of CellTiter-GLo (Promega, Madison Wis.) was added to the cells, and the relative luminescence units (RLUs) of each well were determined. CellTiter-Glo added to 32 μL of medium without cells was used to obtain a background value. The Percent viability of each sample was determined as follows: (RLU sample−RLU background/RLU untreated cells−RLU background)×100=% viability. […]

SMILES	Emax [1] [%]	DC50 [1] [nM]	IC50 [2] [nM]	MCF7 Viability Assay Max Response [2]
Fc1n[nH]c2ccc(/C(=C(/c3ccccc3)C3CCC3)c3ccc(/C=C/c4nnn[nH]4)cc3)cc12 [Example 174, 5-((E)-1-(4-((E)-2-(1H-Tetrazol-5-yl)vinyl)phenyl)-2-cyclobutyl-2-phenylvinyl)-3-fluoro-1H-indazole]	≥ 40	≤ 100	≤ 100	++ (++ = a single % value ≧ 40%)
Cc1cc(CO)ccc1/C(=C(\c1ccc(/C=C/C(=O)O)cc1)c1ccc2scnc2c1)C1CCC1 [Example 237, (E)-3-(4-((E)-1-(Benzo[d]thiazol-5-yl)-2-cyclobutyl-2-(4-(hydroxymethyl)-2-methylphenyl)vinyl)phenyl)acrylic acid]	≥ 40	≤ 100	≤ 100	++ (++ = a single % value ≧ 40%)
COc1ccc(/C(=C(\c2ccc(/C=C/C(=O)O)cc2)c2ccc3[nH]ncc3c2)C2CCC2)c(C#N)c1 [Example 42, (E)-3-(4-((E)-2-(2-Cyano-4-methoxyphenyl)-2-cyclobutyl-1-(1H-indazol-5-yl)vinyl)phenyl)acrylic acid]	≥ 40	≤ 100	≤ 100	++ (++ = a single % value ≧ 40%)
CC/C(=C(/c1ccc(/C=C/C(=O)Nc2nccs2)cc1)c1ccc2[nH]ncc2c1)c1ccc(F)cc1Cl [Example 185, (E)-3-(4-((E)-2-(2-Chloro-4-fluorophenyl)-1-(1H-indazol-5-yl)but-1-en-1-yl)phenyl)-N-(thiazol-2-yl)acrylamide]	≥ 40	≤ 100	≤ 100	++ (++ = a single % value ≧ 40%)
Fc1n[nH]c2ccc(/C(=C(/c3ccccc3)C3CCC3)c3ccc(/C=C/c4ccccn4)cc3)cc12 [Example 215]	≥ 40	≤ 100	≤ 100	++ (++ = a single % value ≧ 40%)
O=C(O)/C=C/c1ccc(/C(=C(\c2cccc(F)c2Cl)C2CCC2)c2ccc3scnc3c2)cc1 [Example 235, (E)-3-(4-((E)-1-(Benzo[d]thiazol-5-yl)-2-(2-chloro-3-fluorophenyl)-2-cyclobutylvinyl)phenyl)acrylic acid]	≥ 40	≤ 100	≤ 100	++ (++ = a single % value ≧ 40%)
CS(=O)(=O)c1cnc(Oc2ccc(/C(=C(\c3ccc(/C=C/C(=O)O)cc3)c3ccc4[nH]nc(F)c4c3)C3CCC3)cc2)cn1 [Example 122, (E)-3-(4-((E)-2-Cyclobutyl-1-(3-fluoro-1H-indazol-5-yl)-2-(4-((5-(methylsulfonyl)pyrazin-2-yl)oxy)phenyl)vinyl)phenyl)acrylic acid]	≥ 40	≤ 100	≤ 100	++ (++ = a single % value ≧ 40%)
O=c1[nH]c(/C=C/c2ccc(/C(=C(\c3ncc(C(F)(F)F)cc3Cl)C3CCC3)c3ccc4scnc4c3)cc2)no1 [Example 277, 3-((E)-4-((E)-1-(Benzo[d]thiazol-5-yl)-2-(3-chloro-5-(trifluoromethyl)pyridin-2-yl)-2-cyclobutylvinyl)styryl)-1,2,4-oxadiazol-5(4H)-one]	≥ 40	≤ 100	≤ 100	++ (++ = a single % value ≧ 40%)
O=C(O)/C=C/c1ccc(/C(=C(\c2ccc(Cl)cc2C(F)(F)F)C2CCC2)c2ccc3nccn3c2)cc1 [Example 223, (E)-3-(4-((E)-2-(4-Chloro-2-(trifluoromethyl)phenyl)-2-cyclobutyl-1-(imidazo[1,2-a]pyridin-6-yl)vinyl)phenyl)acrylic acid]	≥ 40	≤ 100	≤ 100	++ (++ = a single % value ≧ 40%)

Further lines, with some results ahead:

Emax [1] [%]	DC50 [1] [nM]	IC50 [2] [nM]	SMILES	MCF7 Viability Assay Max Response [2]
≥ 40	≤ 100	≤ 100	O=C(O)/C=C/c1ccc(/C(=C(\c2ccc(F)cc2Cl)C2CCC2)c2ccc3[nH]nc(F)c3c2)cn1 [Example 168, (E)-3-(5-((Z)-2-(2-Chloro-4-fluorophenyl)-2-cyclobutyl-1-(3-fluoro-1H-indazol-5-yl)vinyl)pyridin-2-yl)acrylic acid]	++ (++ = a single % value ≧ 40%)
≥ 40	≤ 100	≤ 100	O=C(O)/C=C/c1ccc(/C(=C(\c2ccc(F)cc2Cl)C2CCC2)c2ccc3[nH]nc(F)c3c2)cc1F [Example 271, (E)-3-(4-((Z)-2-(2-Chloro-4-fluorophenyl)-2-cyclobutyl-1-(3-fluoro-1H-indazol-5-yl)vinyl)-2-fluorophenyl)acrylic acid]	++ (++ = a single % value ≧ 40%)
≥ 40	≤ 100	≤ 100	O=c1[nH]c(/C=C/c2ccc(/C(=C(\c3ncc(C(F)(F)F)cc3Cl)C3CCC3)c3ccc4[nH]nc(F)c4c3)cc2)no1 [Example 279, 3-((E)-4-((E)-2-(3-Chloro-5-(trifluoromethyl)pyridin-2-yl)-2-cyclobutyl-1-(3-fluoro-1H-indazol-5-yl)vinyl)styryl)-1,2,4-oxadiazol-5(4H)-one]	++ (++ = a single % value ≧ 40%)
≥ 40	≤ 100	≤ 100	O=C(O)/C=C/c1ccc(/C(=C(\c2ccc(CO)cc2Cl)C2CCC2)c2ccc3scnc3c2)cc1 [Example 233, (E)-3-(4-((E)-1-(Benzo[d]thiazol-5-yl)-2-(2-chloro-4-(hydroxymethyl)phenyl)-2-cyclobutylvinyl)phenyl)acrylic acid]	++ (++ = a single % value ≧ 40%)
≥ 40	≤ 100	≤ 100	Cc1cc([S+](C)[O-])ccc1/C(=C(\c1ccc(/C=C/C(=O)O)cc1)c1ccc2[nH]nc(F)c2c1)C1CCC1 (centres unmarked) [Example 198]	++ (++ = a single % value ≧ 40%)
≥ 40	≤ 100	≤ 100	N#Cc1cc(Cl)ccc1/C(=C(\c1ccc(/C=C/C(=O)O)cc1)c1ccc2[nH]nc(F)c2c1)C1CC1 [Example 120, (E)-3-(4-((E)-2-(4-Chloro-2-cyanophenyl)-2-cyclopropyl-1-(3-fluoro-1H-indazol-5-yl)vinyl)phenyl)acrylic acid]	++ (++ = a single % value ≧ 40%)
≥ 40	≤ 100	≤ 100	COc1ccc(/C(=C(\c2ccc(/C=C/C(=O)O)cc2)c2ccc3[nH]nc(F)c3c2)C2CC2)c(Cl)c1 [Example 114, (E)-3-(4-((E)-2-(2-Chloro-4-methoxyphenyl)-2-cyclopropyl-1-(3-fluoro-1H-indazol-5-yl)vinyl)phenyl)acrylic acid]	++ (++ = a single % value ≧ 40%)
≥ 40	≤ 100	≤ 100	COc1cnc(/C(=C(\c2ccc(/C=C/C(=O)O)cc2)c2ccc3[nH]nc(F)c3c2)C2CC2)c(C)c1 [Example 158, (E)-3-(4-((E)-2-Cyclopropyl-1-(3-fluoro-1H-indazol-5-yl)-2-(5-methoxy-3-methylpyridin-2-yl)vinyl)phenyl)acrylic acid]	++ (++ = a single % value ≧ 40%)
